Our source for the mutagenic call values is PubChem BioAssay AID1259407 (Chemical Carcinogenesis Research Information System (CCRIS), 2018).

In this data set the test system is CCRIS mutagenicity, Ames/micronucleus/aberration tests. Kind of data set: CCRIS mutagenicity studies.
Where [1] appears, read: Test System: AMES SALMONELLA TYPHIMURIUM, Strain/Indicator: TA98, Metabolic Activation: NONE, Method: STANDARD PLATE.
Setting [2] is: Test System: AMES SALMONELLA TYPHIMURIUM, Strain/Indicator: TA100, Metabolic Activation: NONE, Method: STANDARD PLATE.
Setting [3] is: Test System: AMES SALMONELLA TYPHIMURIUM, Strain/Indicator: TA102, Metabolic Activation: NONE, Method: STANDARD PLATE.

Active and inactive are the calls of the source. The rule behind the calls is not given here.

In the case of `CCN(CC)c1ccc2c(-c3ccccc3C(=O)O)c3ccc(=[N+](CC)CC)cc-3oc2c1`, the mutagenic call reads like this: (Test System: AMES SALMONELLA TYPHIMURIUM, Strain/Indicator: TA97, Metabolic Activation: HAMSTER, LIVER, S-9, AROCLOR 1254 (10%), Method: PREINCUBATION) “inactive; negative”; (Test System: AMES SALMONELLA TYPHIMURIUM, Strain/Indicator: TA97, Metabolic Activation: HAMSTER, LIVER, S-9, AROCLOR 1254 (30%), Method: PREINCUBATION) “inactive; negative”; (Test System: AMES SALMONELLA TYPHIMURIUM, Strain/Indicator: TA97, Metabolic Activation: NONE, Method: PREINCUBATION) “inactive; negative”; (Test System: AMES SALMONELLA TYPHIMURIUM, Strain/Indicator: TA97, Metabolic Activation: RAT, LIVER, S-9, AROCLOR 1254 (10%), Method: PREINCUBATION) “inactive; negative”; (Test System: AMES SALMONELLA TYPHIMURIUM, Strain/Indicator: TA97, Metabolic Activation: RAT, LIVER, S-9, AROCLOR 1254 (30%), Method: PREINCUBATION) “inactive; negative”; (Test System: AMES SALMONELLA TYPHIMURIUM, Strain/Indicator: TA98, Metabolic Activation: HAMSTER, LIVER, S-9, AROCLOR 1254 (10%), Method: PREINCUBATION) “inactive; negative”. Further, the mutagenic call is “inactive; negative” (Test System: AMES SALMONELLA TYPHIMURIUM, Strain/Indicator: TA98, Metabolic Activation: HAMSTER, LIVER, S-9, AROCLOR 1254 (30%), Method: PREINCUBATION); “inactive; negative” (Test System: AMES SALMONELLA TYPHIMURIUM, Strain/Indicator: TA98, Metabolic Activation: NONE, Method: PREINCUBATION); “inactive; negative” (Test System: AMES SALMONELLA TYPHIMURIUM, Strain/Indicator: TA98, Metabolic Activation: RAT, LIVER, S-9, AROCLOR 1254 (10%), Method: PREINCUBATION); “inactive; negative” (Test System: AMES SALMONELLA TYPHIMURIUM, Strain/Indicator: TA98, Metabolic Activation: RAT, LIVER, S-9, AROCLOR 1254 (30%), Method: PREINCUBATION); “active; positive” (Test System: AMES SALMONELLA TYPHIMURIUM, Strain/Indicator: TA98, Metabolic Activation: RAT, LIVER, S-9, BETA-NAPHTHOFLAVONE AND PHENOBARBITAL, Method: PREINCUBATION); “inactive; negative” (Test System: AMES SALMONELLA TYPHIMURIUM, Strain/Indicator: TA100, Metabolic Activation: HAMSTER, LIVER, S-9, AROCLOR 1254 (10%), Method: PREINCUBATION). Besides, the mutagenic call was “inactive; negative” (Test System: AMES SALMONELLA TYPHIMURIUM, Strain/Indicator: TA100, Metabolic Activation: HAMSTER, LIVER, S-9, AROCLOR 1254 (30%), Method: PREINCUBATION); “inactive; negative” (Test System: AMES SALMONELLA TYPHIMURIUM, Strain/Indicator: TA100, Metabolic Activation: NONE, Method: PREINCUBATION); “inactive; negative” (Test System: AMES SALMONELLA TYPHIMURIUM, Strain/Indicator: TA100, Metabolic Activation: RAT, LIVER, S-9, AROCLOR 1254 (10%), Method: PREINCUBATION); “inactive; negative” (Test System: AMES SALMONELLA TYPHIMURIUM, Strain/Indicator: TA100, Metabolic Activation: RAT, LIVER, S-9, AROCLOR 1254 (30%), Method: PREINCUBATION); “inactive; negative” (Test System: AMES SALMONELLA TYPHIMURIUM, Strain/Indicator: TA1535, Metabolic Activation: HAMSTER, LIVER, S-9, AROCLOR 1254 (5%), Method: PREINCUBATION); “inactive; negative” (Test System: AMES SALMONELLA TYPHIMURIUM, Strain/Indicator: TA1535, Metabolic Activation: HAMSTER, LIVER, S-9, AROCLOR 1254 (10%), Method: PREINCUBATION). Moreover, the mutagenic call by setting is: (Test System: AMES SALMONELLA TYPHIMURIUM, Strain/Indicator: TA1535, Metabolic Activation: HAMSTER, LIVER, S-9, AROCLOR 1254 (30%), Method: PREINCUBATION) “inactive; negative”; (Test System: AMES SALMONELLA TYPHIMURIUM, Strain/Indicator: TA1535, Metabolic Activation: NONE, Method: PREINCUBATION) “inactive; negative”; (Test System: AMES SALMONELLA TYPHIMURIUM, Strain/Indicator: TA1535, Metabolic Activation: RAT, LIVER, S-9, AROCLOR 1254 (5%), Method: PREINCUBATION) “inactive; negative”; (Test System: AMES SALMONELLA TYPHIMURIUM, Strain/Indicator: TA1535, Metabolic Activation: RAT, LIVER, S-9, AROCLOR 1254 (10%), Method: PREINCUBATION) “inactive; negative”; (Test System: AMES SALMONELLA TYPHIMURIUM, Strain/Indicator: TA1535, Metabolic Activation: RAT, LIVER, S-9, AROCLOR 1254 (30%), Method: PREINCUBATION) “inactive; negative”; (Test System: AMES SALMONELLA TYPHIMURIUM, Strain/Indicator: TA1537, Metabolic Activation: HAMSTER, LIVER, S-9, AROCLOR 1254 (10%), Method: PREINCUBATION) “inactive; negative”. Moreover, the mutagenic call is “inactive; negative” (Test System: AMES SALMONELLA TYPHIMURIUM, Strain/Indicator: TA1537, Metabolic Activation: NONE, Method: PREINCUBATION); “inactive; negative” (Test System: AMES SALMONELLA TYPHIMURIUM, Strain/Indicator: TA1537, Metabolic Activation: RAT, LIVER, S-9, AROCLOR 1254 (10%), Method: PREINCUBATION); “inactive; negative” (Test System: AMES SALMONELLA TYPHIMURIUM, Strain/Indicator: TA1538, Metabolic Activation: NONE, Method: STANDARD PLATE); “inactive; negative” (Test System: AMES SALMONELLA TYPHIMURIUM, Strain/Indicator: TA1538, Metabolic Activation: RAT, LIVER, S-9, AROCLOR 1254, Method: STANDARD PLATE); “inactive; negative” (Test System: CHINESE HAMSTER V-79, Strain/Indicator: V-79/6-THIOGUANINE, Metabolic Activation: NONE, Method: SUSPENSION/PLATE); “inactive; negative” (Test System: CHINESE HAMSTER V-79, Strain/Indicator: V-79/6-THIOGUANINE, Metabolic Activation: RAT, LIVER, S-9, PHENOBARBITAL AND BETA-NAPHTHOFLAVONE, Method: SUSPENSION/PLATE).
Regarding `COc1cc([C@H]2OC[C@H]3[C@@H]2CO[C@@H]3c2cc(OC)c(OC)c(OC)c2)cc(OC)c1OC`, the mutagenic call was “inactive; negative” (Test System: AMES SALMONELLA TYPHIMURIUM, Strain/Indicator: TA97A, Metabolic Activation: NONE, Method: STANDARD PLATE); “inactive; negative” (Test System: AMES SALMONELLA TYPHIMURIUM, Strain/Indicator: TA97A, Metabolic Activation: RAT LIVER S-9 (AROCLOR), Method: STANDARD PLATE); “inactive; negative” under setting [1]; “inactive; negative” (Test System: AMES SALMONELLA TYPHIMURIUM, Strain/Indicator: TA98, Metabolic Activation: RAT LIVER S-9 (AROCLOR), Method: STANDARD PLATE); “inactive; negative” under setting [2]; “inactive; negative” (Test System: AMES SALMONELLA TYPHIMURIUM, Strain/Indicator: TA100, Metabolic Activation: RAT LIVER S-9 (AROCLOR), Method: STANDARD PLATE). The mutagenic call was “inactive; negative” under setting [3]; “inactive; negative” (Test System: AMES SALMONELLA TYPHIMURIUM, Strain/Indicator: TA102, Metabolic Activation: RAT LIVER S-9 (AROCLOR), Method: STANDARD PLATE); “inactive; negative” (Test System: AMES SALMONELLA TYPHIMURIUM, Strain/Indicator: TA1535, Metabolic Activation: NONE, Method: STANDARD PLATE); “inactive; negative” (Test System: AMES SALMONELLA TYPHIMURIUM, Strain/Indicator: TA1535, Metabolic Activation: RAT LIVER S-9 (AROCLOR), Method: STANDARD PLATE).
For the compound `COc1c(Cl)cc2c(c1OC)N(C)[C@@H]1N3C(=O)[C@@]4(C)SS[C@@]3(C(=O)N4C)[C@H](O)[C@]21O`, the mutagenic call is, setting by setting: under setting [1], “inactive; negative”; (Test System: AMES SALMONELLA TYPHIMURIUM, Strain/Indicator: TA98, Metabolic Activation: RAT, LIVER, S-9, AROCLOR 1254, Method: STANDARD PLATE) “inactive; negative”; under setting [2], “inactive; negative”; (Test System: AMES SALMONELLA TYPHIMURIUM, Strain/Indicator: TA100, Metabolic Activation: RAT, LIVER, S-9, AROCLOR 1254, Method: STANDARD PLATE) “inactive; negative”; under setting [3], “inactive; negative”; (Test System: AMES SALMONELLA TYPHIMURIUM, Strain/Indicator: TA102, Metabolic Activation: RAT, LIVER, S-9, AROCLOR 1254, Method: STANDARD PLATE) “inactive; negative”. In addition, the mutagenic call by setting is: (Test System: AMES SALMONELLA TYPHIMURIUM, Strain/Indicator: TA1537, Metabolic Activation: NONE, Method: STANDARD PLATE) “inactive; negative”; (Test System: AMES SALMONELLA TYPHIMURIUM, Strain/Indicator: TA1537, Metabolic Activation: RAT, LIVER, S-9, AROCLOR 1254, Method: STANDARD PLATE) “inactive; negative”.
